Values after ≈ are worked out from the molar mass of the structure shown.
Tests used:
[1] = target: Methionine aminopeptidase 2 (Homo sapiens, UniProt P50579); test: Inhibition of recombinant human N-terminal His tagged MetAP-2 using tripeptide Met-Ala-Ser as substrate preincubated for 15 mins followed by substrate addition measured after 45 mins by L-amino acid oxidase enzyme coupled assay
[2] = Thermodynamic solubility of the compound; type: physicochemical; settings: read-out: Therm_solubility
[3] = Permeability in human Caco2 cells; type: ADME, cell-based; settings: Caco-2, read-out: permeability

Chain of Methionine aminopeptidase 2 (P50579 whole entry): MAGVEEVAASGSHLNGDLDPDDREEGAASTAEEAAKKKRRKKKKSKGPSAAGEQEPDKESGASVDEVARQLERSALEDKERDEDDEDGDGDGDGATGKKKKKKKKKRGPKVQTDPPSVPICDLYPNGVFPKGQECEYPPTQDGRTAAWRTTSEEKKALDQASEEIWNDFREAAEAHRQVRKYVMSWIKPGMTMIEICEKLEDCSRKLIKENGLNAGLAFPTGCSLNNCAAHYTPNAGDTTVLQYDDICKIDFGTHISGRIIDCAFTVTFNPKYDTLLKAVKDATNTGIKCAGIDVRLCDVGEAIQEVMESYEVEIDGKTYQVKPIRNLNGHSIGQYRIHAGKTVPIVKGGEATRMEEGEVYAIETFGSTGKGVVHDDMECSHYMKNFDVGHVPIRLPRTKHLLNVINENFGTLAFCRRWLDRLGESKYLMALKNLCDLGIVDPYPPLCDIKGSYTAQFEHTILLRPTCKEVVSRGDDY

Row | IC50 [1] [µM] | solubility thermodynamic [2] [µg/mL] | Papp [3] [×10⁻⁶ cm/s] | Compound
1 | > 50 |  |  | Clc1ccccc1OC[C@H]1CCCN1c1ncnc2ncccc12
2 | > 50 |  |  | Fc1cccc(OC[C@H]2CCCN2c2ncnc3[nH]ccc23)c1
3 |  | 171 (≈ 494 µM) | 21 | c1ccc2c(OC[C@H]3CCCN3c3ccnc4ncnn34)cncc2c1

From ChEMBL document CHEMBL4000189, “Novel reversible methionine aminopeptidase-2 (MetAP-2) inhibitors based on purine and related bicyclic templates” (Bioorg Med Chem Lett, 2017)
